PMC8657773, “Development of a PROTAC-Based Targeting Strategy Provides a Mechanistically Unique Mode of Anti-Cytomegalovirus Activity” (International Journal of Molecular Sciences, 2021)
Several values for one entry are separate records, joined by “and”; a condition that tells them apart may be missing. Equal entries are not always repeated. Where two headings read alike, the source gives them in different places.

What was measured:
[1] = test system: SARS-CoV-2 d6-YFP; design: method as in PMID 34578109; settings: human Caco-2 cells, previously demonstrated; ref [41]; cited from earlier work
[2] = test system: HCMV AD169-GFP; design: method as in PMID 30452929, PMID 25624324; settings: anti-HCMV, preceding determination; ref [22],[26]; cited from earlier work
[3] = test system: HCMV AD169-GFP; test: microbe, parasite or virus in culture; format: cell-based, Human cytomegalovirus
[4] = test system: MCMV Smith-GFP; test: microbe, parasite or virus in culture; format: cell-based, murine CMV; settings: for EC50: Human betaherpesvirus 5, in Mus musculus, 120 h, MCMV Smith-GFP, 5 d p.i.
[5] = test system: HAdV-2; test: HAdV-2 plaque formation assay in HFFs; format: cell-based, human adenovirus type 2; settings: for EC50: HAdV-2, HFF, 10 d p.i.; for impact on HAdV-2 plaque formation: HFFs, at concentrations (0.03 µM) that produced anti-HCMV activity
[6] = test system: HFFs; test: in vitro; format: cell-based; settings: human
Description: (§1) Drug induced cytotoxicity in HFF and other cell types was measured as a reduction of cell viability determined by Neutral Red uptake assay (NRA), as described previously. Briefly, compound treated cells were incubated with a final concentration of 40 μg/mL Neutral Red (Sigma Aldrich, St. Louis, MO, USA) for 1 to 4 h, depending on the cell type. The amount of incorporated Neutral Red was released from the cells by incubation with destaining solution (50% ethanol, 49% H2O, 1% acetic acid), and subsequently quantitated in a microplate reader by fluorescence measurement using 560/630 nm for excitation/emission, respectively. For determination of lactate dehydrogenase release into the cell culture supernatant, the CytoTox 96® Non-Radioactive Cytotoxicity Assay (Promega, Madison, WI, USA) was used according to the manufacturer’s protocol. Values were normalized to maximal release of LDH by measuring lysates of solvent-treated control cells. Cell viability was defined as the absence of cytotoxicity.

[7] = in vitro; format: cell-based
Description: as §1

[8] = test system: VZV Oka-GFP; format: cell-based, varicella zoster virus; settings: HFF, 1× TCID25^7d, 6 d p.i.
[9] = test system: SARS-CoV-2 d6-YFP; test: microbe, parasite or virus in culture; format: cell-based
[10] = target: T1, CDK1 (Homo sapiens, UniProt P06493); test: Western blot of CDK degradation in HFFs; format: cell-based; settings: uninfected HFFs, up to 100 nM, up to 24 h
T1 construct: endogenous in cells; host or cells: primary human foreskin fibroblasts (HFFs), mock- or HCMV AD169-infected
T1 sequence (P06493 whole entry): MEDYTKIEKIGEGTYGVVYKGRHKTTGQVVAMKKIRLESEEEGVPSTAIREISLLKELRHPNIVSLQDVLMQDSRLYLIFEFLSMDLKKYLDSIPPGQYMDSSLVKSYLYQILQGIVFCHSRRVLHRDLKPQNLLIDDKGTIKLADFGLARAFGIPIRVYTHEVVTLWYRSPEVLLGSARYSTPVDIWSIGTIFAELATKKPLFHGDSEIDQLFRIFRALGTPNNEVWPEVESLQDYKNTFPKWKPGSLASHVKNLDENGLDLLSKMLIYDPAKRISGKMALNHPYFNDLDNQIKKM
Description: (§2) Western blot analyses of infected and mock-infected HFFs were performed as previously described. Antibodies specific for CDK9 (sc-484, Santa Cruz Biotechnology, Dallas, TX, USA), mAb-CDK1 (sc-54, Santa Cruz Biotechnology), pAb CDK2 (Sc-163, Santa Cruz Biotechnology), pAb-CDK7 (sc-723, Santa Cruz Biotechnology), and mAb β-actin (A5441, Sigma Aldrich, St. Louis, MO, USA) were used with an appropriate secondary antibody to detect the respective proteins.

[11] = target: T2, CDK9 (Homo sapiens, UniProt P50750); test: Western blot of CDK degradation in HFFs; format: cell-based; settings: uninfected HFFs
T2 construct: endogenous in cells; host or cells: primary human foreskin fibroblasts (HFFs), mock- or HCMV AD169-infected
T2 sequence (P50750 whole entry): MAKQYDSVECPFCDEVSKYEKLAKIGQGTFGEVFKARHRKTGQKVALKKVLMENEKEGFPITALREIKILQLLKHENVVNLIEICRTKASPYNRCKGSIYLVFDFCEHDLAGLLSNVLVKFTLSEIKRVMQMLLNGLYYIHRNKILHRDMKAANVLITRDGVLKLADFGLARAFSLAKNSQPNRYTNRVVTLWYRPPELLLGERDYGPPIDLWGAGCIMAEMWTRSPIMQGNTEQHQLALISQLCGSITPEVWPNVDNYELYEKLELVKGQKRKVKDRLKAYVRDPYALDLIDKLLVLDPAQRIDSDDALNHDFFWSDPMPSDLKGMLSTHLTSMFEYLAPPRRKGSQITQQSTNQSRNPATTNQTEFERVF
Description: as §2

[12] = target: T3, CDK7 (Homo sapiens, UniProt P50613); test: Western blot of CDK degradation in HFFs; format: cell-based; settings: uninfected HFFs
T3 construct: endogenous in cells; host or cells: primary human foreskin fibroblasts (HFFs), mock- or HCMV AD169-infected
T3 sequence (P50613 whole entry): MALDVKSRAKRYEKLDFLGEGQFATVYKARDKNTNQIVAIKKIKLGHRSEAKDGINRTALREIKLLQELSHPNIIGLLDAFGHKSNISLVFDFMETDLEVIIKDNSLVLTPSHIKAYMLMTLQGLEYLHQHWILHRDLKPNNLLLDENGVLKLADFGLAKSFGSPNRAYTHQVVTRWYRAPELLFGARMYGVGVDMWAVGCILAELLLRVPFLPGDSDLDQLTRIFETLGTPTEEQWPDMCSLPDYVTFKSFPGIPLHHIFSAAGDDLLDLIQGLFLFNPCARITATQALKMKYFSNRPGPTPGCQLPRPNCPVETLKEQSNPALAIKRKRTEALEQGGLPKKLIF
Description: as §2

[13] = target: T4, CDK2 (Homo sapiens, UniProt P24941); test: Western blot of CDK degradation in HFFs; format: cell-based; settings: uninfected HFFs
T4 construct: endogenous in cells; host or cells: primary human foreskin fibroblasts (HFFs), mock- or HCMV AD169-infected
Description: as §2

[14] = Cell viability of Vero cells; format: cell-based; settings: African green monkey
Description: as §1

[15] = test system: HCMV Merlin; test: HCMV-specific qPCR replication assay in TEV-1 trophoblast cells; format: cell-based, Human cytomegalovirus
[16] = test system: MEFs; test: in vitro; format: cell-based; settings: mouse, 5 d
Description: as §1

[17] = test system: HCMV Merlin; test: HCMV-specific qPCR replication assay in MRC-5 cells; format: cell-based, Human cytomegalovirus
[18] = test system: ZIKV PRVABC59; test: ZIKV qPCR replication assay in Vero cells; format: cell-based, Zika virus; settings: for EC50: ZIKV PRVABC59, Vero
[19] = test system: TEV-1 trophoblast cells; test: Transwell migration assay, HCMV AD169-infected TEV-1 trophoblasts; format: cell-based, human; settings: HCMV AD169-infected TEV-1 (MOI 2)
[20] = Neutral Red uptake assay, uninfected MRC-5 cells; format: cell-based; settings: human
Description: as §1

[21] = target: T1, CDK1; test: Western blot of CDK levels in HCMV-infected HFFs; format: cell-based; settings: HCMV AD169-infected HFFs (MOI 2), THAL-SNS032 treatment, 1 and 3 d p.i.
Description: as §2

[22] = target: T2, CDK9; test: Western blot of CDK levels in HCMV-infected HFFs; format: cell-based; settings: HCMV AD169-infected HFFs (MOI 2)
Description: as §2

[23] = target: T3, CDK7; test: Western blot of CDK levels in HCMV-infected HFFs; format: cell-based; settings: HCMV AD169-infected HFFs (MOI 2), THAL-SNS032 treatment, 1 and 3 d p.i.
Description: as §2

[24] = target: T4, CDK2; test: Western blot of CDK levels in HCMV-infected HFFs; format: cell-based; settings: HCMV AD169-infected HFFs (MOI 2), THAL-SNS032 treatment, 1 and 3 d p.i.
Description: as §2

[25] = MEF, 1× TCID25^5d, Table 1 summary
[26] = Human betaherpesvirus 5, AD169, 168 h
[27] = Human betaherpesvirus 5, AD169, HFF-1, 168 h
[28] = Severe acute respiratory syndrome coronavirus 2, Caco-2
[29] = Severe acute respiratory syndrome coronavirus 2, Caco-2, 30 h
[30] = washout after 24 h treatment, initial levels reconstituted after 24 h

CC(C)c1cnn2c(NCc3ccccc3-n3cccn3)nc(OC3CCCNC3)nc12 (stereo not shown) [LDC4297]
impairment of SARS-CoV-2 replication [1]: inactive | EC50 [2]: 0.03 µM

O=C1Cc2c([nH]c3ccc([N+](=O)[O-])cc23)-c2ccccc2N1 [R25/alsterpaullone, alsterpaullone]
impairment of SARS-CoV-2 replication [1]: effective

Cc1c(Br)c(Br)c2c3c1nc(N1CCNCC1)n3CCC2 [SEL120]
EC50 ([3]; Human betaherpesvirus 5, AD169): 0.12 ± 0.07 µM

CC(C)(C)c1cnc(CSc2cnc(NC(=O)C3CCNCC3)s2)o1 [SNS032]
EC50 [4, 25]: 0.29 ± 0.05 µM | SI ([4]; MCMV/MEF, Figure 6 experiment): 3.5 | SI ([4]; MCMV/MEF, Table 1 summary): 3.5 | SI ([3]; HCMV AD169-GFP/HFF, Table 1 summary): 2.0 | SI ([3]; HCMV AD169-GFP/HFF, representative experiment (Figure 3)): 2.3 | EC50 [3, 26]: 0.105 ± 0.004 µM | EC50 [3, 27]: 0.11 ± 0.02 µM | EC50 [5]: inactive | impact on HAdV-2 plaque formation [5]: none of the drugs produced a measurable impact | CC50 [6]: 0.22 ± 0.04 µM | CC50 at 48 h ([7]; human): 59.5 ± 7 µM | CC50 ([7]; human, CC50): 0.24 ± 0.022 µM | CC50 ([7]; mouse, CC50): 1.03 ± 0.05 µM | CC50 at 5 d ([7]; mouse, CC50): ~1 µM | EC50 [8]: inactive | EC50 [9]: 0.18 ± 0.03 µM | SI ([9]; Caco-2, conventional treatment): 340 | SI ([9]; Caco-2, only pretreatment): 397 | EC50 [9, 28]: 0.15 ± 0.03 µM | EC50 [9, 29]: 0.175 ± 0.25 µM | impairment of SARS-CoV-2 replication [1]: effective

CC(C)(C)c1cnc(CSc2cnc(NC(=O)C3CCN(CC(=O)NCCOCCOCCOCCNc4cccc5c4C(=O)N(C4CCC(=O)NC4=O)C5=O)CC3)s2)o1 (stereo not shown) [THAL-SNS032]
CDK1 protein level [10]: apparently not affected | CDK9 protein level ([11]; 10 nM, beginning with 6 h): markedly reduced | CDK9 protein level ([11]; 100 nM, after 40 min): decreased protein levels | time reduced CDK9 level was maintained after washout [11, 30]: 6 h | CDK7 protein level (larger variety) ([12]; 100 nM, 6 to 24 h): decline in protein levels | time reduced CDK7 level was maintained after washout [12, 30]: 6 h | CDK2 protein level ([13]; 100 nM, 6 to 24 h): decline in protein levels | time reduced CDK2 level was maintained after washout [13, 30]: 6 h | EC50 Ratio SNS032/ THAL-SNS032 [4]: 1.4 | SI [4]: 4.7 | EC50 [4, 25]: 0.21 ± 0.09 µM | EC50 ([4]; MEFs, Figure 6 experiment): 0.22 ± 0.08 µM | EC50 Ratio SNS032/ THAL-SNS032 [3]: 3.7 | SI [3]: 5.7 | EC50 [3, 26]: 0.025 ± 0.001 µM | EC50 [3, 27]: 0.03 ± 0.01 µM | EC50 ([3]; Human betaherpesvirus 5, AD169, read-out: EC50 values (range) for HCMV): 0.03 to 3.07 µM | CC50 at 4 d [14]: 43.9 µM | EC50 [5]: inactive | impact on HAdV-2 plaque formation [5]: none of the drugs produced a measurable impact | SI [15]: 53.7 and 54 | EC50 ([15]; Human betaherpesvirus 5, 168 h, HCMV Merlin, TEV-1, 7 d p.i.): 0.075 µM | CC50 [16]: 0.96 ± 0.12 µM | CC50 ([7]; human): 4.03 µM | CC50 at 48 h ([7]; human): 64.9 ± 16.2 µM | CC50 ([7]; human, CC50): 0.125 ± 0.014 µM | CC50 ([7]; mouse, CC50): 1 ± 0.22 µM | CC50 at 5 d ([7]; mouse, CC50): ~1 µM | EC50 [8]: inactive | EC50 [9]: 0.15 ± 0.02 µM | EC50 Ratio SNS032/ THAL-SNS032 [9]: 1.6 and 1.7 | SI [9]: 592 | EC50 [9, 28]: 0.146 ± 0.022 µM | EC50 [9, 29]: 0.11 ± 0.02 µM | EC50 ([17]; Human betaherpesvirus 5, MRC5, 96 h, HCMV Merlin, MRC-5, MOI 0.02, 4 d p.i., read-out: EC50): 0.37 µM | EC50 ([17]; Human betaherpesvirus 5, MRC5, 96 h, HCMV Merlin, MRC-5, MOI 0.2, 4 d p.i., read-out: EC50): 1.77 µM | EC50 ([17]; Human betaherpesvirus 5, MRC5, 168 h, HCMV Merlin, MRC-5, MOI 0.002, 7 d p.i., read-out: EC50): 0.57 µM | EC50 ([17]; Human betaherpesvirus 5, MRC5, 168 h, HCMV Merlin, MRC-5, MOI 0.02, 7 d p.i., read-out: EC50): 0.4 µM | EC50 ([17]; Human betaherpesvirus 5, MRC5, 168 h, HCMV Merlin, MRC-5, MOI 0.2, 7 d p.i., read-out: EC50): 3.07 µM | EC50 ([17]; Human betaherpesvirus 5, MRC5, 240 h, HCMV Merlin, MRC-5, MOI 0.002, 10 d p.i., read-out: EC50): 0.94 µM | EC50 ([17]; Human betaherpesvirus 5, MRC5, MRC-5, lower MOIs of 0.02 and 0.002, 4 to 10 days, read-out: EC50 values (range)): 0.34 to 0.94 µM | effect on ZIKV replication ([18]; Vero cells, concentrations up to 10 µM): did not affect virus replication | EC50 ([18]; MOI 0.02, 1 d p.i.): inactive | EC50 ([18]; MOI 0.02, 2 d p.i.): inactive | EC50 ([18]; MOI 0.02, 3 d p.i.): inactive | EC50 ([18]; MOI 0.02, 4 d p.i.): inactive | trophoblast migration ([19]; 0.5 µM, 21 h migration): almost completely abolished trophoblast migration | CC50 [20]: 4.65 µM | CDK1 protein level [21]: markedly reduced at 1 d p.i. and completely lost at 3 d p.i. | CDK9 protein level ([22]; 1 nM, 1 and 3 d p.i.): partial reduction | CDK9 protein level ([22]; 10 nM, 3 h p.i.): sufficient to deplete CDK9 levels | CDK7 protein level [23]: markedly reduced at 1 d p.i. and completely lost at 3 d p.i. | CDK2 protein level [24]: markedly reduced at 1 d p.i. and completely lost at 3 d p.i.

Nc1nc(O)c2ncn(COC(CO)CO)c2n1 [ganciclovir]
resolving HCMV inhibition of trophoblast migration ([19]; 10 µM, vs infected untreated cells (p = 0.999)): no effect
